This note sets out measurements from US8030354B2, “Substituted biphenyl GPR40 modulators” (Amgen Inc., priority 2007, dated 2011).

pEC50: −log10 of the molar value.

Sequence of GPR40 (O14842 whole entry): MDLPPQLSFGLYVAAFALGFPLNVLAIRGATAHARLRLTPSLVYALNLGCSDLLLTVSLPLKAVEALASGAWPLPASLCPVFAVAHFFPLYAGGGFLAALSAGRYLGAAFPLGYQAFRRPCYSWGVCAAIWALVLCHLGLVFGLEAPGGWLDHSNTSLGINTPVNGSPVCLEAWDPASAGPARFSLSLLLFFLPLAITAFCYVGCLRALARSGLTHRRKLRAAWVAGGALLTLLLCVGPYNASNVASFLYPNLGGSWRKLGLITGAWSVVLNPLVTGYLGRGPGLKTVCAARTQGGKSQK

The target in the assay is GPR40 (Homo sapiens, UniProt O14842). Briefly: Cell-based aequorin assay (CHO cells stably expressing GPR40 and aequorin). To be noted: activation of human GPR40, CHO cells, 0.01% HSA. More on the design: expressed in transfected cells; host or cells: CHO cells stably transfected with GPR40 and aequorin. How it is done:
Briefly, the Aequorin assays were performed on doubly stable CHO cells expressing GPR40 and Aequorin DNA. […] The luminescence was recorded over a period of 20 seconds with a Microlumat luminometer (Berthold). […] The inositol phosphate assay was performed on an A9 cell line stably transfected with GPR40 (A9_GPR40). The cells were incubated with different concentrations of compounds and [^3H] inositol accumulation was measured after 1 hour.
Cell-based aequorin assays were employed to characterize the modulatory activity of compounds on the GPR40 signaling pathway. In an exemplary assay, CHO cells were stably transfected with both GPR40 and Aequorin (Euroscreen). Cells were detached from the tissue culture dish with 2 mL of trypsin (0.25%(w/v)). Trypsinization was halted with 28 mL of Hanks Buffered Salt Solution containing 20 mM Hepes (H/HBSS) and 0.01% fatty acid-free human serum albumin (HSA). Coelantrazine is added to 1 ug/mL, and the cells were incubated for 2 hours at room temperature. Compounds were dissolved in DMSO for preparation of 10 mM stock solutions. Compounds were diluted in H/HBSS containing 0.01% HSA. Serial dilutions of the test compounds were prepared to determine dose response.
Aequorin luminescence measurements were made using an EG&G Berthold 96-well luminometer, and the response was measured over a 20 second interval after cells and compounds were mixed. The maximum relative light units was plotted to determine dose response. The EC50 (effective concentration to reach 50% maximal response) was determined from the dose response plot.
In turn, `CSc1cccc(-c2ccc(COc3cccc([C@H](C)CC(=O)O)c3)cc2C(C)(C)C)c1` (single isomer, unassigned) [Example 3, (3R)-3-(3-(((2-(1,1-Dimethylethyl)-3′-(methylsulfanyl)-1,1′-biphenyl-4-yl)methyl)oxy)phenyl)butanoic acid or (3S)-3-(3-(((2-(1,1-dimethylethyl)-3′-(methylsulfanyl)-1,1′-biphenyl-4-yl)methyl)oxy)phenyl)butanoic acid] had a negative logarithm of the EC50 (pEC50) of 5.00 to 6.00.
The figure for `COc1ccc(F)c(-c2ccc(COc3cccc([C@H](CC(=O)O)C4CC4)c3)cc2C(C)(C)C)c1` (single isomer, unassigned) [Example 10, (3R)-3-Cyclopropyl-3-(3-(((2-(1,1-dimethylethyl)-2′-fluoro-5′-(methyloxy)-1,1′-biphenyl-4-yl)methyl)oxy)phenyl)propanoic acid or (3S)-3-cyclopropyl-3-(3-(((2-(1,1-dimethylethyl)-2′-fluoro-5′-(methyloxy)-1,1′-biphenyl-4-yl)methyl)oxy)phenyl)propanoic acid] is 5.00 to 6.00; for `CCCCOc1cc(COc2cccc([C@H](CC(=O)O)C3CC3)c2)ccc1-c1cc(OC)ccc1F` (single isomer, unassigned) [Example 11, (3R)-3-(3-(((2-(Butyloxy)-2′-fluoro-5′-(methyloxy)-1,1′-biphenyl-4-yl)methyl)oxy)phenyl)-3-cyclopropylpropanoic acid or (3S)-3-(3-(((2-(butyloxy)-2′-fluoro-5′-(methyloxy)-1,1′-biphenyl-4-yl)methyl)oxy)phenyl)-3-cyclopropylpropanoic acid] it is 5.00 to 6.00.
With `C=C[C@H](CC(=O)O)c1cccc(OCc2ccc(-c3cc(OC)ccc3F)c(C(C)(C)C)c2)c1` (single isomer, unassigned) [Example 15, (3S)-3-(3-(((2-(1,1-Dimethylethyl)-2′-fluoro-5′-(methyloxy)-1,1′-biphenyl-4-yl)methyl)oxy)phenyl)-4-pentenoic acid or (3R)-3-(3-(((2-(1,1-dimethylethyl)-2′-fluoro-5′-(methyloxy)-1,1′-biphenyl-4-yl)methyl)oxy)phenyl)-4-pentenoic acid], the negative logarithm of the EC50 (pEC50) is 5.00 to 6.00.
To `C=C[C@H](CC(=O)O)c1cccc(OCc2ccc(-c3cc(OC)ccc3F)c(OCCCC)c2)c1` (single isomer, unassigned) [Example 16, (3S)-3-(3-(((2-(Butyloxy)-2′-fluoro-5′-(methyloxy)-1,1′-biphenyl-4-yl)methyl)oxy)phenyl)-4-pentenoic acid or (3R)-3-(3-(((2-(butyloxy)-2′-fluoro-5′-(methyloxy)-1,1′-biphenyl-4-yl)methyl)oxy)phenyl)-4-pentenoic acid] belongs 5.00 to 6.00; to `C=CC(CC(=O)O)c1cccc(OCc2ccc(-c3cc(OC)ccc3F)c(C(C)(C)C)c2)c1` (single isomer, unassigned) [Example 19, (3R)-3-(3-(((2-(1,1-Dimethylethyl)-2′-fluoro-5′-(methyloxy)-1,1′-biphenyl-4-yl)methyl)oxy)phenyl)-4-pentenoic acid or (3S)-3-(3-(((2-(1,1-dimethylethyl)-2′-fluoro-5′-(methyloxy)-1,1′-biphenyl-4-yl)methyl)oxy)phenyl)-4-pentenoic acid], 5.00 to 6.00.
The figure for `CCCCOc1cc(COc2cccc([C@H](C)CC(=O)O)c2)ccc1-c1ccc(OC)cc1` (single isomer, unassigned) [Example 21, (3R)-3-(3-(((2-(Butyloxy)-4′-(methyloxy)-1,1′-biphenyl-4-yl)methyl)oxy)phenyl)butanoic acid or (3S)-3-(3-(((2-(butyloxy)-4′-(methyloxy)-1,1′-biphenyl-4-yl)methyl)oxy)phenyl)butanoic acid] is 5.00 to 6.00.
As to `CCCCOc1cc(COc2cccc([C@H](C)CC(=O)O)c2)ccc1-c1cccc(OCC)c1` (single isomer, unassigned) [Example 22, (3R)-3-(3-(((2-(Butyloxy)-3′-(ethyloxy)-1,1′-biphenyl-4-yl)methyl)oxy)phenyl)butanoic acid or (3S)-3-(3-(((2-(butyloxy)-3′-(ethyloxy)-1,1′-biphenyl-4-yl)methyl)oxy)phenyl)butanoic acid], the pEC50 was 5.00 to 6.00.
To `CCCCOc1cc(COc2cccc([C@H](C)CC(=O)O)c2)ccc1-c1cc(OCC)ccc1F` (single isomer, unassigned) [Example 23, (3R)-3-(3-(((2-(Butyloxy)-5′-(ethyloxy)-2′-fluoro-1,1′-biphenyl-4-yl)methyl)oxy)phenyl)butanoic acid or (3S)-3-(3-(((2-(butyloxy)-5′-(ethyloxy)-2′-fluoro-1,1′-biphenyl-4-yl)methyl)oxy)phenyl)butanoic acid] belongs 5.00 to 6.00; to `CCCCOc1cc(COc2cccc([C@H](C)CC(=O)O)c2)ccc1-c1ccccc1F` (single isomer, unassigned) [Example 24, (3R)-3-(3-(((2-(Butyloxy)-2′-fluoro-1,1′-biphenyl-4-yl)methyl)oxy)phenyl)butanoic acid or (3S)-3-(3-(((2-(butyloxy)-2′-fluoro-1,1′-biphenyl-4-yl)methyl)oxy)phenyl)butanoic acid], 5.00 to 6.00; to `CCCCOc1cc(COc2cccc([C@H](C)CC(=O)O)c2)ccc1-c1ccccc1OC` (single isomer, unassigned) [Example 25, (3R)-3-(3-(((2-(Butyloxy)-2′-(methyloxy)-1,1′-biphenyl-4-yl)methyl)oxy)phenyl)butanoic acid or (3S)-3-(3-(((2-(butyloxy)-2′-(methyloxy)-1,1′-biphenyl-4-yl)methyl)oxy)phenyl)butanoic acid], less than 5.00.
The figure for `COc1ccc(F)c(-c2ccc(COc3cccc([C@H](C)CC(=O)O)c3)cc2OC2CCCCO2)c1` (single isomer, unassigned) [Example 26, (3R)-3-(3-(((2′-Fluoro-5′-(methyloxy)-2-(tetrahydro-2H-pyran-2-yloxy)-1,1′-biphenyl-4-yl)methyl)oxy)phenyl)butanoic acid or (3S)-3-(3-(((2′-fluoro-5′-(methyloxy)-2-(tetrahydro-2H-pyran-2-yloxy)-1,1′-biphenyl-4-yl)methyl)oxy)phenyl)butanoic acid] is 6.00 to 7.00.
Regarding `CCCOc1cc(COc2cccc([C@H](C)CC(=O)O)c2)ccc1-c1cc(OC)ccc1F` (single isomer, unassigned) [Example 27, (3R)-3-(3-(((2′-Fluoro-5′-(methyloxy)-2-(propyloxy)-1,1′-biphenyl-4-yl)methyl)oxy)phenyl)butanoic acid or (3S)-3-(3-(((2′-fluoro-5′-(methyloxy)-2-(propyloxy)-1,1′-biphenyl-4-yl)methyl)oxy)phenyl)butanoic acid], the pEC50 was 5.00 to 6.00.
Consider `CCCCCOc1cc(COc2cccc([C@H](C)CC(=O)O)c2)ccc1-c1cc(OC)ccc1F` (single isomer, unassigned) [Example 28, (3R)-3-(3-(((2′-Fluoro-5′-(methyloxy)-2-(pentyloxy)-1,1′-biphenyl-4-yl)methyl)oxy)phenyl)butanoic acid or (3S)-3-(3-(((2′-fluoro-5′-(methyloxy)-2-(pentyloxy)-1,1′-biphenyl-4-yl)methyl)oxy)phenyl)butanoic acid], for which the negative-log EC50 (pEC50) is 6.00 to 7.00.
The figure for `COc1ccc(F)c(-c2ccc(COc3cccc([C@H](C)CC(=O)O)c3)cc2OCC(C)C)c1` (single isomer, unassigned) [Example 29, (3R)-3-(3-(((2′-Fluoro-5′-(methyloxy)-2-((2-methylpropyl)oxy)-1,1′-biphenyl-4-yl)methyl)oxy)phenyl)butanoic acid or (3S)-3-(3-(((2′-fluoro-5′-(methyloxy)-2-((2-methylpropyl)oxy)-1,1′-biphenyl-4-yl)methyl)oxy)phenyl)butanoic acid] is 6.00 to 7.00; for `COc1ccc(F)c(-c2ccc(COc3cccc([C@H](C)CC(=O)O)c3)cc2OCc2ccccc2)c1` (single isomer, unassigned) [Example 30, (3R)-3-(3-(((2′-Fluoro-5′-(methyloxy)-2-((phenylmethyl)oxy)-1,1′-biphenyl-4-yl)methyl)oxy)phenyl)butanoic acid or (3S)-3-(3-(((2′-fluoro-5′-(methyloxy)-2-((phenylmethyl)oxy)-1,1′-biphenyl-4-yl)methyl)oxy)phenyl)butanoic acid] it is 5.00 to 6.00; for `COc1ccc(F)c(-c2ccc(COc3cccc([C@H](C)CC(=O)O)c3)cc2OC(C)C)c1` (single isomer, unassigned) [Example 31, (3R)-3-(3-(((2′-Fluoro-2-((1-methylethyl)oxy)-5′-(methyloxy)-1,1′-biphenyl-4-yl)methyl)oxy)phenyl)butanoic acid or (3S)-3-(3-(((2′-fluoro-2-((1-methylethyl)oxy)-5′-(methyloxy)-1,1′-biphenyl-4-yl)methyl)oxy)phenyl)butanoic acid] it is 6.00 to 7.00.

The term pEC50 denotes the EC50 on a negative log10 scale, so that one unit is a factor of ten.
